According to paper PMC4776135, “Small Molecule Inhibition of Ligand-Stimulated RAGE-DIAPH1 Signal Transduction” (Scientific Reports, 2016):

What was measured:
[1] = system: phospho/total ERK1/2 in primary murine aortic SMCs; assay: CML-AGE-stimulated ERK1/2 phosphorylation, Western blot; format: cell-based; details: 1 µM compound, 1.5 h pretreatment; CML-AGE 10 µg/ml 20 min; p < 0.05
Source text: (§1) We tested the effects of compounds 1–13 on cellular signaling in primary murine aortic SMCs. […] In primary murine aortic SMCs, we tested the effects of CML-AGE RAGE ligand on Akt and ERK1/2 phosphorylation, as these pathways are seminally linked to fundamental properties of these cells and their responses to stress, such as growth, proliferation, hypertrophy, migration, and survival.
(§2) Figure 3 Effects of compounds 1–13 on RAGE ligand-stimulated phosphorylation of ERK and AKT in primary murine aortic SMCs. Primary murine SMCs were incubated with compounds 1–13 (1 μM) for 1.5 h and then treated with RAGE ligand CML-AGE (10 μg/ml) for 20 minutes. Cells were harvested and total lysates were subjected to Western blotting with antibodies against phospho-ERK and phospho-AKT. Blots were then re-probed with antibodies to total-ERK and total-AKT and relative optical density (ROD) is reported. (a) Quantified levels of phosphorylated/total ERK normalized to total ERK are shown. (b) Quantified levels of phosphorylated/total AKT normalized to total AKT are shown. Assays results shown are representative of three independent experiments. Error bars represent SEM. *indicates p < 0.05 comparing CML-AGE vs. CML-AGE and compound treatment and ^#indicates p < 0.001 comparing CML-AGE vs. serum free medium (SFM) alone vehicle. Above each Western blot, S = serum-free medium and C = CML-AGE; numbers above the blots indicate the compound number.
(§3) Total protein extracts were prepared from primary murine aortic smooth muscle cells using cell lysis buffer (Cell Signaling Technology, Beverly, MA). Equal amounts of protein (30 μg/sample) were subjected to SDS-PAGE (4–12%) followed by electrophoretic transfer to nitrocellulose membranes. Nonspecific binding was blocked by incubation of membranes with BSA (5%) for 1 h. The blot was incubated with one of the following antibodies as the primary antibody for the reaction: anti-phospho-ERK1/2 (P-ERK1/2) IgG, anti-total-ERK1/2 (T-ERK1/2) IgG, anti-phospho-AKT (P-AKT) IgG, and anti-total-AKT (T-AKT) IgG (Cell Signaling Technology). Each primary antibody was used at a dilution of 1:1,000 overnight at 4 °C according to the manufacturer’s instructions. Horseradish peroxidase-conjugated secondary antibodies (1:2,500; Amersham Biosciences) were used to identify sites of binding of each primary antibody.
(§4) Murine vascular SMCs were cultured from the aortas of 10-week old male mice using a modification of the procedure of Travo and Barret[68]. SMCs were cultured following an explant protocol in accordance with institutional guidelines. Wild-type murine aortic vascular SMCs were isolated and used between passages 8 to 12. Human aortic vascular smooth muscle cells were purchased from American Type Culture Collection (ATCC, Manassas, VA) and cultured according to the methods recommended by ATCC. Murine primary aortic endothelial cells were from 6- to 8-week-old wild-type C57BL/6J mice (Jackson Laboratories, Bar Harbor ME) and used under passage 10[69]. THP-1 cells were obtained from the American Type Tissue Collection (ATCC, Manassas VA) and used according to the manufacturer’s instructions.

[2] = system: phospho/total Akt in primary murine aortic SMCs; assay: CML-AGE-stimulated Akt phosphorylation, Western blot; format: cell-based; details: 1 µM compound, 1.5 h pretreatment; CML-AGE 10 µg/ml 20 min; p < 0.05
Source text: as §1, §2, §3, §4

[3] = system: Il6 mRNA in primary murine aortic endothelial cells (MAECs); assay: CML-AGE-mediated upregulation of Il6 mRNA, real-time quantitative PCR; format: cell-based; details: 1 µM compound 1.5 h, CML-AGE 10 µg/ml 6 h
Method: First, we tested the effects of RAGE ligand CML-AGE in primary murine aortic endothelial cells (MAECs). […] To assess the effects of the compounds, we pre-treated MAECs for 1.5 h with compounds 1–13 (1 μM).
Figure 5 Effects of compounds 1–13 on RAGE ligand-stimulated inflammatory gene expression in primary murine aortic endothelial cells and human THP-1 cells. Primary murine aortic endothelial cells (a,b) or human THP1 cells (c,d) were subjected to 1.5 h incubation with compounds 1–13 (1 μM) followed by stimulation with CML-AGE (10 μg/ml) for 6 h. Cells were then harvested and gene expression of the inflammatory markers Tnfα and Il6 normalized to β-actin (a,b) or 18s rRNA (c,d) was performed. Assays were performed in triplicate and results are representative of three independent experiments. Error bars represent SEM. *indicates p < 0.05 comparing CML-AGE vs. CML-AGE and compound treatment ^#indicates p < 0.001 comparing CML-AGE vs. SFM vehicle (SFM).
(§5) Total RNA was extracted from cells and tissues using the RNeasy lipid kit (Qiagen, Hilden, Germany). cDNA was synthesized with MultiScribe reverse transcriptase (Applied Biosystems, Foster City, CA). Real-time quantitative PCR was performed using the TaqMan method (50 °C for 2 min, 95 °C for 10 min, and 40 cycles of 95 °C for 15 s and 60 °C for 1 min) with premade primer sets (Applied Biosystems). The relative abundance of transcripts was normalized according to the expression of 18S rRNA (for human cells) or β-actin (for murine cells and tissues) using the ΔΔCt method. Supplementary Table S4 lists the specific primers used in the outlined studies.

Tnfa mRNA in kidney = assay: CML-AGE infusion in vivo, kidney Tnfa mRNA; set-up: species or system C57BL/6J mice; details: mice; four doses 5 mg/kg i.p. every 12 h; CML-AGE 150 µg i.p.; kidney 4 h later; p < 0.05
Method: Next, it was essential to test the ability of the thirteen compounds to block RAGE ligand-mediated inflammation in vivo. […] To test this concept in the present study, we treated wild-type mice with CML-AGE (150 μg) by intraperitoneal injection after pretreatment with four doses of compounds 1–13 (5 mg/kg per dose, 12 h apart). Thirty minutes after the fourth dose of compound, mice were injected with CML-AGE and sacrificed 4 h later. Kidney tissue was retrieved and subjected to real-time quantitative PCR for detection of transcripts encoding inflammatory mediators.
Figure 6 Effect of compounds 1–13 in vivo. (a,b) C57BL/6J mice were subjected to intraperitoneal administration of four doses of compounds 1–13 (5 mg/kg every 12 h) or equal volumes of vehicle (PBS). Thirty minutes after the final injection, mice were injected with CML-AGE (150 μg) by intraperitoneal administration. Four h later, mice were sacrificed and kidney was retrieved. Real time quantitative PCR was performed for detection of Tnfa (a) and Il6 (b). (c) Assessment of compounds on cardiac functional recovery in diabetes. C57BL/6 mice were rendered type 1 diabetic with streptozotocin. After a mean range of 37–45 days of untreated hyperglycemia, mice were sacrificed and hearts rapidly retrieved for assessment of the efficacy of compounds 1–13 (1 μM) or vehicle, DMSO, on left ventricular developed pressure (LVDP) after ischemia. All hearts were subjected to 30 minutes of global ischemia followed by 60 min of reperfusion. Test compounds were introduced 10 minutes prior to the start of ischemia and continued throughout the reperfusion protocol. In (a–c), N = 5–6 mice per group. Error bars represent SEM. In (a–c), *indicates p < 0.05 vs. respective control, and in (a,b), ^#indicates p < 0.001 comparing CML-AGE vs. PBS treatment.
as §5
Male, wild-type C57BL/6J mice were purchased from the Jackson Laboratories. At age 8 weeks, mice were pretreated with 4 doses of compounds 1–13, 5 mg/kg, by intraperitoneal administration twice daily for a total of two days and four total doses. Control treatment consisted of DMSO diluted into PBS. Thirty minutes after the last dose, CML-AGE (150 μg) was injected by intraperitoneal route. 4 h later, mice were sacrificed and kidney tissue was rapidly retrieved for preparation of mRNA and performance of real time quantitative PCR for the following mRNA transcripts, Tnfa and Il6.

[4] = system: diabetic mouse heart (ex vivo); assay: Isolated perfused diabetic heart, ischemia/reperfusion, LVDP recovery; set-up: species or system C57BL/6 mice; details: streptozotocin-diabetic mouse hearts ex vivo; 1 µM compound; 30 min ischemia, 60 min reperfusion; p < 0.05
Method: Figure 6 Effect of compounds 1–13 in vivo. (a,b) C57BL/6J mice were subjected to intraperitoneal administration of four doses of compounds 1–13 (5 mg/kg every 12 h) or equal volumes of vehicle (PBS). Thirty minutes after the final injection, mice were injected with CML-AGE (150 μg) by intraperitoneal administration. Four h later, mice were sacrificed and kidney was retrieved. Real time quantitative PCR was performed for detection of Tnfa (a) and Il6 (b). (c) Assessment of compounds on cardiac functional recovery in diabetes. C57BL/6 mice were rendered type 1 diabetic with streptozotocin. […]
Finally, we tested the effects of these compounds in settings in which RAGE ligands naturally accumulate, particularly the diabetic heart. […] At the end of reperfusion, we measured left ventricular developed pressure (LVDP) in the hearts, a key measure of functional recovery after injury.
Male C57BL/6 mice, age 8–12 weeks, were purchased from The Jackson Laboratory and rendered diabetic by 55 mg/kg by intraperitoneal route of streptozotocin (STZ) (Sigma Aldrich, St. Louis MO) per day in fresh citrate buffer (0.05 mol/l; pH 4.5) for 5 consecutive days. […] Left ventricular developed pressure (LVDP) was measured using a latex balloon in the left ventricle and monitored continuously on an ADI recorder. […]

Structure (SMILES) | effect on CML-AGE-mediated phospho/total ERK1/2 [1] | effect on CML-AGE-mediated stimulation of phospho/total-Akt [2] | effect on CML-AGE-mediated upregulation of Il6 [3] | effect on CML-AGE-mediated upregulation of Tnfa mRNA in kidney (Tnfa mRNA in kidney) | left ventricular developed pressure (LVDP) functional recovery after ischemia/reperfusion vs DMSO vehicle [4]
COc1cc(SC)ccc1C(=O)Nc1cccc(C)n1 [Compound 1] | significant suppression | significant suppression | significant suppression | significant suppression | –
C=CCOc1ccc2c(C(F)(F)F)cc(=O)oc2c1 [Compound 2] | significant suppression | significant suppression | significant suppression | significant suppression | –
Cc1nc2ccccc2n1CC(O)Cn1c2ccccc2c2ccccc21 (centres unmarked) [Compound 3] | significant suppression | significant suppression | significant suppression | significant suppression | statistically-significantly higher LVDP
OC(Cn1ccc2ccccc21)Cn1cnc2ccccc21 (centres unmarked) [Compound 4] | significant suppression | significant suppression | significant suppression | – | –
Cl.Oc1cccc(Nc2nc(-c3ccc(F)cc3F)cs2)c1 [Compound 5] | significant suppression | did not significantly suppress | significant suppression | significant suppression | –
COc1cc(NC(C)=O)c(Cl)cc1C(=O)Nc1nccs1 [Compound 6] | did not significantly affect | significant suppression | significant suppression | significant suppression | –
COC(=O)c1cc(OC)c(OC)cc1NC(=O)C1Oc2ccccc2OC1C (centres unmarked) [Compound 7] | did not significantly affect | did not significantly suppress | significant suppression | – | statistically-significantly higher LVDP
Cc1ccc(S(=O)(=O)N(C)C(F)F)cc1 [Compound 8] | did not significantly affect | did not significantly suppress | significant suppression | significant suppression | –
